Several values for one entry are separate records, joined by “and”; a condition that tells them apart may be missing. Equal entries are not always repeated.
Experiments:
[1] = biological target: T1, GST-CREB / HIS-CRTC2-S171A interaction (Homo sapiens, UniProt P16220); test: In vitro pull-down with purified GST-CREB and HIS-CRTC2-S171A; assay type: biochemical; conditions: for Relative HIS/GST in GST-pull down fraction: Fig 2d replicates
T1 construct: made in house; host or cells: E. coli
Source text: To further confirm whether APC disrupts the protein association between CREB and CRTC2, we performed GST-pull-down assays in which GST-CREB beads were used to immunoprecipitated FLAG-tagged CRTC2 proteins that were expressed in HEK293T cells. As expected, APC attenuated the amounts of FLAG-CRTC2 proteins recovered by GST-CREB beads from HEK293T cell lysates (Fig. 2a). […] In contrast, APC had little effect on the association of GST-CREB with HA-P300 (Supplementary Fig. 2a), as well as the interaction between endogenous CRTC2 and CBP proteins (Fig. 2c). Moreover, the interactions of CREB and the isoforms CRTC1 and CRTC3 were also attenuated by APC in overexpression HEK293T cells (Supplementary Fig. 2b, c).
Fig. 2 APC blocks interaction between CREB and CRTC2. a Analysis of GST-CREB immunoprecipitated with overexpressed FLAG-CRTC2 from the lysates of HEK293T cells. APC (10 μM) was added to the culture media for 1 h and the following IP mixture. The relative gray density of FLAG in GST-pull-down fraction is shown as a bar graph (bottom). One of three independent experiments is presented (top, n = 3). Data are represented as mean ± SEM); P values were determined by one-way ANOVA followed Dunnett’s multiple comparisons test. b Analysis of HA-CRTC2 immunoprecipitated with endogenous CREB from primary hepatocyte lysates. APC (10 μM) was added to the culture media for 1-h before 30-min of stimulation with glucagon (Gluc, 100 nM) and the following IP mixture as indicated. Top panel presents one of three independent experiments, and the relative gray density of HA in CREB-IP-faction is shown as a bar graph (bottom, n = 3). Data are represented as mean ± SEM; P values were determined by one-way ANOVA followed Dunnett’s multiple comparisons test. c Immunoblotting analysis of endogenous CREB, CRTC2, and CBP interaction by an anti-CRTC2 antibody from the lysate of primary hepatocytes. APC (10 μM) was added to the culture media for 1-h before 30-min stimulation with glucagon. Related CREB and CBP normalized by CRTC2, respectively, in CRTC2-IP fractions. The top panel presents one of three independent experiments, and the relative gray density of CREB and CBP normalized to CRTC2 in the CRTC2-IP-faction is shown as a bar graph (bottom, n = 3). Data are represented as mean ± SEM; P values were determined by two-way ANOVA followed Bonferroni’s multiple comparisons test. d Immunoblotting analysis of protein GST-CREB recovered HIS-CRTC2-S171A proteins purified from E. coli. The addition of APC (5, 10, or 50 μM) in pull-down mixtures is indicated. […] Data are represented as mean ± SEM; P values were determined by one-way ANOVA followed Dunnett’s multiple comparisons test (compared with APC = 0).

[2] = system: G6pc promoter (G6p-Luc) in the liver; test: Live imaging of hepatic G6p-Luc reporter; assay type: in vivo, mouse
Source text: Complete DNA sequences encoding human Creb and Crtc2 were cloned in the plasmids psc811 and psc804 to express BD-CREB and VP16AD-CRTC2 recombined proteins, respectively. GAL4-luciferase and RSV (Rous Sarcoma Virus)-Renilla were constructed using the pGL3 plasmid. pGEX5X-1 and pET28C were used to construct plasmids for GST- and HIS-tagged proteins expression, respectively. Adenoviruses encoding Ad-HA-Crtc2, Ad-GFP, and Ad-RSV-β-Gal (galactosidase) have been described previously. For infecting primary hepatocytes, 0.5–1 MOI adenovirus was employed. For live imaging experiments, 10^8 plaques forming units (pfu) Ad-G6P-Luc and 5 × 10^7 pfu Ad-RSV-β-gal adenovirus were delivered to mice by tail vein injection. Mice were then imaged on day 3–5 after adenovirus delivery.
After two days of tail intravenously delivery of Ad-G6p-Luc (10^8 pfu) and Ad-RSV-β-Gal (5 × 10^7 pfu) adenoviruses, mice were orally administered propolis or i.p. injected with APC one dose per day for another 3 days. After 16 h fasting, mice were anesthetized using gaseous isoflurane (Abbott), were i.p. injected with 100 mg/kg sterile firefly D-luciferin (Biosynth AG), and 15 min later, imaged by IVIS-100 Imaging System and analyzed with Living Image Software (Xenogen). Liver lysates were prepared to determine β-Gal activity. Luciferase activity detected for each mouse was normalized to the β-Gal expression in the liver.

[3] = system: promoter occupancy in primary hepatocytes; test: ChIP assays; assay type: cell-based, mouse; conditions: for ChIP: CBP, CRE-PGC1a, mean / ChIP: CBP, CRE-Pck1, mean: N=4
[4] = mean over Gluc0, Gluc30, Gluc60
[5] = primary hepatocytes exposed to glucagon, APC 10 μM

T1 sequence (P16220 whole entry, stated change not applied): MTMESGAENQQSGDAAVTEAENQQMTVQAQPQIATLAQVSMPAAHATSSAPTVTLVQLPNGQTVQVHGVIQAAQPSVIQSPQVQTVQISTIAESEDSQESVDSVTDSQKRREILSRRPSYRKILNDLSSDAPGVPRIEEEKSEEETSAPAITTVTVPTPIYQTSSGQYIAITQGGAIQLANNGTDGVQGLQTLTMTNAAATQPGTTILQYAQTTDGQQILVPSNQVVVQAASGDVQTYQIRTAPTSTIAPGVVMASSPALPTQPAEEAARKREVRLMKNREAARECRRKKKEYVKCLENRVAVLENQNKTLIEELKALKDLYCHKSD

CC(C)=CCc1cc(C=CC(=O)O)cc(CC=C(C)C)c1O [APC, 3,5-diprenyl-4-hydroxycinnamic acid]
Relative HIS/GST in GST-pull down fraction ([1]; APC 5 uM): 0.8055 and 0.8618 and 0.7881 | Relative HIS/GST in GST-pull down fraction ([1]; APC 10 uM): 0.4842 and 0.3120 and 0.3223 | Relative HIS/GST in GST-pull down fraction ([1]; APC 50 uM): 0.1707 and 0.1125 and 0.1021 | HIS-CRTC2-S171A recovered by GST-CREB ([1]; purified proteins, APC 5, 10, 50 μM, dose-dependent): significantly diminished | G6P-Luc reporter activity in the livers ([2]; DIO mice, i.p. 20 mg/kg daily, 3 days): substantially decreased | Relative G6P-LUC activity, folds (mean of column B) ([2]; Figure 8a right, group mean, n=5, VEH mean 0.996): 0.402 folds | Relative G6P-LUC activity, folds ([2]; Figure 8a right, individual mice, vs VEH): 0.6379 folds and 0.1281 folds and 0.5105 folds and 0.3399 folds and 0.3902 folds | ChIP CREB in LXRa promoter, Input % ([3]; ChIP-CREB, LXRa promoter, individual replicates, n=4): 48.6099 Input % and 36.4614 Input % and 38.9243 Input % and 32.1584 Input % | ChIP CREB in LXRa promoter, group mean (Mean 1) ([3]; ChIP-CREB, LXRa promoter, mean of N=4): 39.04 Input % | ChIP CRTC2 in LXRa promoter, Input % ([3]; ChIP-CRTC2, LXRa promoter, individual replicates, n=4): 91.9916 Input % and 76.2395 Input % and 65.9044 Input % and 83.3167 Input % | ChIP CRTC2 in LXRa promoter, group mean (Mean 1) ([3]; ChIP-CRTC2, LXRa promoter, mean of N=4): 79.36 Input % | ChIP-IgG in LXRa promoter, Input % ([3]; ChIP-IgG (control antibody), LXRa promoter, individual replicates, n=4): 0.8383 Input % and 0.5702 Input % and 0.8279 Input % and 1.761 Input % | ChIP-IgG in LXRa promoter, group mean (Mean 1) ([3]; ChIP-IgG (control antibody), LXRa promoter, mean of N=4): 0.9995 Input % | ChIP: LXRa recuited in Srebf1 promoter, relative enrichment folds, group mean (Mean 1) ([3]; ChIP-LXRa, Srebf1 promoter, mean of N=4): 0.4914 fold | ChIP: RXRa recuited in Srebf1 promoter, relative enrichment folds, group mean (Mean 1) ([3]; ChIP-RXRa, Srebf1 promoter, mean of N=4): 0.5838 fold | ChIP: LXRa recuited in Srebf1 promoter, relative enrichment folds ([3]; ChIP:LXRa, Srebf1 promoter, individual replicates, n=4): 0.5482 fold and 0.5209 fold and 0.4024 fold and 0.494 fold | ChIP: RXRa recuited in Srebf1 promoter, relative enrichment folds ([3]; ChIP:RXRa, Srebf1 promoter, individual replicates, n=4): 0.4207 fold and 0.6691 fold and 0.5173 fold and 0.7279 fold | ChIP: CBP, CRE-PGC1a, mean ([3]; Gluc0): 0.891 | ChIP: CBP, CRE-Pck1, mean ([3]; Gluc0): 0.921 | ChIP: CBP, CRE-PGC1a, mean ([3]; Gluc30): 0.574 | ChIP: CBP, CRE-Pck1, mean ([3]; Gluc30): 0.749 | ChIP: CBP, CRE-PGC1a, mean ([3]; Gluc60): 0.582 | ChIP: CBP, CRE-Pck1, mean ([3]; Gluc60): 0.834 | Mean of APC_ChIP: CBP, CRE-G6pc [3, 4]: 1.496 | Mean of ChIP: CBP & APC, CRE-Pck1 [3, 4]: 0.835 | Mean of ChIP: CBP & APC, CRE-Pgc-1a [3, 4]: 0.682 | CRTC2 recruited to CRE sites of G6pc, Pgc-1α and Pck1 promoters (ChIP) [3, 5]: significantly attenuated | occupancy of CREB or CBP at CRE sites (ChIP) [3, 5]: little effect | LXRα and RXRα recruited to LXRE element of Srebf1 promoter (ChIP) ([3]; primary hepatocytes, APC 10 μM): reduced | occupancy of CRTC2 on half CRE site of Lxrα promoter (ChIP) ([3]; primary hepatocytes, glucagon, APC 10 μM): attenuated

From article PMC8752738, “A propolis-derived small molecule ameliorates metabolic syndrome in obese mice by targeting the CREB/CRTC2 transcriptional complex” (Nature Communications, 2022)
